Read-outs that look alike come from different tables or passages of the source.
Assays:
Format in all cases: in vitro ADME
Pgp = Pgp (Homo sapiens, UniProt P08183); assay: Pgp inhibition, bidirectional transport in Pgp-expressed MDCKII monolayers; set-up: expressed in transfected cells; host or cells: MDCKII
Protocol: (§1) In addition, the inhibition potential against efflux transporters (P-glycoprotein (Pgp) and breast cancer resistance protein (BCRP)) and uptake transporters (MATE1, MATE2-K, OATP1B1, OATP1B3, OAT1, OAT3, and OCT2) was assessed using single transporter over-expressed cell monolayers (MDCK II or HEK293) or inside-out vesicles.
(§2) The potential of Compound A to inhibit Pgp or BCRP was tested for bidirectional transport of the probe substrates in Pgp or BCRP-expressed MDCKII and control monolayers at Compound A concentrations of 0.07-5 μM. Pgp and BCR inhibition were tested in inside-out membrane vesicles prepared from HEK293 overexpressing human Pgp and BCR at concentrations of 0.01-9 μM Compound A in the presence of 4 mM MgATP or MgAMP.

CYP2B6 mRNA = CYP2B6 mRNA induction in cryopreserved human hepatocytes; settings: 0.03-30 μM; for CYP2B6 mRNA Fold induction: human hepatocytes, 48 hours
Protocol: (§3) The induction potential of Compound A on CYP enzymes was assessed in cryopreserved human hepatocytes from three donors. Following treatment for with Compound A at concentrations of 0.03-30 μM for 48 hours, mRNA levels for CYP1A2, 2B6, 2C8, 2C9, 2C19, and 3A4 were determined by semiquantitative real-time polymerase chain reaction (PCR). Test article concentrations during 24-hour incubation were determined. The potential of Compound A to cause direct and time-dependent inhibition (TDI) of the activities of CYP1A2, 2B6, 2C8, 2C9, 2C19, 2D6, and 3A4 was evaluated in pooled human liver microsomes (HLM) at 0.2-15 μM. Probe substrate concentrations around Km were used for direction inhibition and initial TDI assays. For TDI assay, Compound A was pre-incubated with pooled HLM with and without NADPH for 30 minutes prior to incubation with a single concentration of probe substrate.

CYP2C19 mRNA = CYP2C19 mRNA induction in cryopreserved human hepatocytes; settings: 48 hours
CYP3A = CYP3A (Homo sapiens, UniProt P08684); assay: Direct and time-dependent CYP3A inhibition in pooled human liver microsomes; settings: pooled HLM, read-out: IC50, No Pre-incubation
CYP3A, sequence (P08684 2-503): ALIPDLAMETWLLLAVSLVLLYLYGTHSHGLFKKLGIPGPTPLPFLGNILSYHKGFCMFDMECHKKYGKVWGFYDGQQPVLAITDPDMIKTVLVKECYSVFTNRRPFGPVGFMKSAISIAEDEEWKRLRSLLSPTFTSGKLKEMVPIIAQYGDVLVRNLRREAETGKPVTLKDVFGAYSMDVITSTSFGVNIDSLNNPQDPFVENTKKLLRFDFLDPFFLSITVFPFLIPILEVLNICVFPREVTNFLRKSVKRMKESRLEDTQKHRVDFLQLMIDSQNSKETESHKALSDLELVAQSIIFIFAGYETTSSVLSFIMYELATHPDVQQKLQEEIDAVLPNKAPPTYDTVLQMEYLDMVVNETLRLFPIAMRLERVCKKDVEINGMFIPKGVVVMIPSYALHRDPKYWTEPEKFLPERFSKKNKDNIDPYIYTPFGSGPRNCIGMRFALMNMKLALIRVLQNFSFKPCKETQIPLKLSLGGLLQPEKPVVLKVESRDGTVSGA
Protocol: as §3

CYP2D6 = target: T1, CYP2D6 (Homo sapiens, UniProt P10635); assay: Direct and time-dependent CYP2D6 inhibition in pooled human liver microsomes; settings: pooled HLM, substrate Bufuralol 5 μM
T1 construct: evaluated in pooled human liver microsomes (HLM); from tissue; host or cells: pooled human liver microsomes
T1 sequence (P10635 whole entry): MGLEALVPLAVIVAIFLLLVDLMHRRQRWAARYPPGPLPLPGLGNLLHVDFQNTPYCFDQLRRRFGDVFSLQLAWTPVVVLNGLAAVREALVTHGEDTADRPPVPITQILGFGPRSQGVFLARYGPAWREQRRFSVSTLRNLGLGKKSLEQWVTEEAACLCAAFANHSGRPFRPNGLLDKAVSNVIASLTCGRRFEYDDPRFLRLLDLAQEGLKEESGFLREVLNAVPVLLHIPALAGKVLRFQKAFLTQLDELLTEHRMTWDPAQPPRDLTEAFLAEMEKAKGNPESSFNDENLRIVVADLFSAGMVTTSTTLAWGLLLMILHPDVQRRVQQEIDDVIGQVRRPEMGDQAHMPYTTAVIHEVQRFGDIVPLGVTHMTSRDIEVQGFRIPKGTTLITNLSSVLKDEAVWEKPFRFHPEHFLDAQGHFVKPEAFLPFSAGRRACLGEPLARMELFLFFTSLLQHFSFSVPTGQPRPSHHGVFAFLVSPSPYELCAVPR
Protocol: as §3

Caco-2 cell monolayers = assay: Bidirectional permeability in Caco-2 cell monolayers; settings: 1% of BSA, 120 min incubation
Protocol: (§4) The potential of Compound A to act as an efflux transporter Pgp and BCRP as well as uptake transporter OATP1B1 and 1B3 were assessed in Caco-2 and single transporter over-expressed HEK29 cells, respectively.
(§5) The potential of Compound A to act as a substrate for Pgp and BCRP was examined in Caco-2 cells at the concentrations of 0.075, 0.75, 3.75 and 7.5 μM containing 1% of BSA. After 120 min incubation, the bidirectional permeability of Compound A was determined by LC-MS/MS. The involvement of Compound A as a substrate of OATP1B1 and OATP1B3 was assessed in the uptake transporter substrate assays at 4 concentrations (0.1, 0.5, 1 and 5 μM). Compound A in cell lysates was determined by LC-MS/MS.

OATP1B3 = target: T2, OATP1B3 (Homo sapiens, UniProt Q9NPD5); assay: OATP1B3 uptake transporter substrate assay; set-up: expressed in transfected cells; settings: OATP1B3-expressing vs control cell
T2 sequence (Q9NPD5 1-702): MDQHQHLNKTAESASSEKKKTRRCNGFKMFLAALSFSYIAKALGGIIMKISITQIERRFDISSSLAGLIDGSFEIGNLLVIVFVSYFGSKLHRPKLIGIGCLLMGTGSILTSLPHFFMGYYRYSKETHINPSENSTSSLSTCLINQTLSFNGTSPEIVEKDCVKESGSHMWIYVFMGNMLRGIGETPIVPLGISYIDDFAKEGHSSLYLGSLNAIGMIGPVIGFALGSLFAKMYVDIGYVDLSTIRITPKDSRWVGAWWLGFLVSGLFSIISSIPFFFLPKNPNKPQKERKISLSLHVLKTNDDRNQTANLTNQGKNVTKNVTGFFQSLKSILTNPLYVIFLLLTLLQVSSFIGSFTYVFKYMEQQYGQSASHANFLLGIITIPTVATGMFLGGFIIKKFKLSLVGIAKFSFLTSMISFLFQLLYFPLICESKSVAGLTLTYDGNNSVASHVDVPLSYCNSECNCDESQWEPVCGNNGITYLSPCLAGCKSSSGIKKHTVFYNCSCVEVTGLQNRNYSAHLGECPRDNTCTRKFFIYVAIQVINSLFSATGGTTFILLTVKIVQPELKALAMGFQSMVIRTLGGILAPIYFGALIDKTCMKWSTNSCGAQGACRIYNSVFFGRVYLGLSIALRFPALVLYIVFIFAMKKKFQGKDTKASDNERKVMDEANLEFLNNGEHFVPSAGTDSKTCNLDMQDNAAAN
Protocol: as §4, §5

CYP2C19 = target: T3, CYP2C19 (Homo sapiens, UniProt P33261); assay: Direct and time-dependent CYP2C19 inhibition in pooled human liver microsomes; settings: pooled HLM, substrate S-Mephenytoin 20 μM
T3 construct: evaluated in pooled human liver microsomes (HLM); from tissue; host or cells: pooled human liver microsomes
T3 sequence (P33261 whole entry): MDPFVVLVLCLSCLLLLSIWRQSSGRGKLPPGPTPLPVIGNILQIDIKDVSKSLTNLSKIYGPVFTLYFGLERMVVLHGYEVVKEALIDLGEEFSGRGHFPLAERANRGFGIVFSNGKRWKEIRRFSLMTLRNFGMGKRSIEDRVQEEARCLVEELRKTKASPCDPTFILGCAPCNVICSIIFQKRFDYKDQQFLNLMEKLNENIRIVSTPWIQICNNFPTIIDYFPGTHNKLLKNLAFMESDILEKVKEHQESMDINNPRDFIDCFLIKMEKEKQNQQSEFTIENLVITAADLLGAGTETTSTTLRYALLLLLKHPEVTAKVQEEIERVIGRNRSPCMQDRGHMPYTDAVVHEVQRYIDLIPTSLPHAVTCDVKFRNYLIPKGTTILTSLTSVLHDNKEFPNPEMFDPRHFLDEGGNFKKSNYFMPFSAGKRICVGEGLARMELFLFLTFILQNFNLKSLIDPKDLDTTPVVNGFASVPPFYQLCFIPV
Protocol: as §3

CYP2C9 mRNA = CYP2C9 mRNA induction in cryopreserved human hepatocytes; settings: 0.03-30 μM; for CYP2C9 mRNA Fold induction: human hepatocytes, 48 hours
CYP1A2 mRNA = CYP1A2 mRNA induction in cryopreserved human hepatocytes; settings: 0.03-30 μM; for CYP1A2 mRNA Fold induction: human hepatocytes, 48 hours
Protocol: as §3

OAT1 = target: T4, OAT1 (Homo sapiens, UniProt Q4U2R8); assay: OAT1 uptake transporter inhibition in MDCKII or HEK293 cells; settings: substrate Estrone-3-sulfate (E3S) (5 μM)
T4 construct: expressed in transfected cells; host or cells: MDCKII or HEK293
T4 sequence (Q4U2R8 whole entry): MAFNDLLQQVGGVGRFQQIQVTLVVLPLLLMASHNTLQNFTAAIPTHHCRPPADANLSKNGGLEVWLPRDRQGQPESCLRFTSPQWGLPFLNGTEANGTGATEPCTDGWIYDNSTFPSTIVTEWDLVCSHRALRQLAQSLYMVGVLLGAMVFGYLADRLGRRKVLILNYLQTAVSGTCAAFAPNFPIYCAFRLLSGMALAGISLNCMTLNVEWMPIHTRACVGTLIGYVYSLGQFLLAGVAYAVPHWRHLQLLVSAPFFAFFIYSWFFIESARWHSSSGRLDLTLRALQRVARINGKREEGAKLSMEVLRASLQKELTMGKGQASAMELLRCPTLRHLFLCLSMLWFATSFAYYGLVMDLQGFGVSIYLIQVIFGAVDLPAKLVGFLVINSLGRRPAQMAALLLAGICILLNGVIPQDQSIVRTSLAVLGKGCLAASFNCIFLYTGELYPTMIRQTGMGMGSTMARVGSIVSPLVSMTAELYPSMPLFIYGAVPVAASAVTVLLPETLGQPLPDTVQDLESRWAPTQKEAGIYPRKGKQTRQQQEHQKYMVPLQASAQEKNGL
Protocol: as §1, §2

[1] = all three donors of human hepatocytes
[2] = read-out: IC50, 30 min Pre-incubation
[3] = read-out: IC50, No Pre-incubation

Pgp, sequence (P08183 whole entry): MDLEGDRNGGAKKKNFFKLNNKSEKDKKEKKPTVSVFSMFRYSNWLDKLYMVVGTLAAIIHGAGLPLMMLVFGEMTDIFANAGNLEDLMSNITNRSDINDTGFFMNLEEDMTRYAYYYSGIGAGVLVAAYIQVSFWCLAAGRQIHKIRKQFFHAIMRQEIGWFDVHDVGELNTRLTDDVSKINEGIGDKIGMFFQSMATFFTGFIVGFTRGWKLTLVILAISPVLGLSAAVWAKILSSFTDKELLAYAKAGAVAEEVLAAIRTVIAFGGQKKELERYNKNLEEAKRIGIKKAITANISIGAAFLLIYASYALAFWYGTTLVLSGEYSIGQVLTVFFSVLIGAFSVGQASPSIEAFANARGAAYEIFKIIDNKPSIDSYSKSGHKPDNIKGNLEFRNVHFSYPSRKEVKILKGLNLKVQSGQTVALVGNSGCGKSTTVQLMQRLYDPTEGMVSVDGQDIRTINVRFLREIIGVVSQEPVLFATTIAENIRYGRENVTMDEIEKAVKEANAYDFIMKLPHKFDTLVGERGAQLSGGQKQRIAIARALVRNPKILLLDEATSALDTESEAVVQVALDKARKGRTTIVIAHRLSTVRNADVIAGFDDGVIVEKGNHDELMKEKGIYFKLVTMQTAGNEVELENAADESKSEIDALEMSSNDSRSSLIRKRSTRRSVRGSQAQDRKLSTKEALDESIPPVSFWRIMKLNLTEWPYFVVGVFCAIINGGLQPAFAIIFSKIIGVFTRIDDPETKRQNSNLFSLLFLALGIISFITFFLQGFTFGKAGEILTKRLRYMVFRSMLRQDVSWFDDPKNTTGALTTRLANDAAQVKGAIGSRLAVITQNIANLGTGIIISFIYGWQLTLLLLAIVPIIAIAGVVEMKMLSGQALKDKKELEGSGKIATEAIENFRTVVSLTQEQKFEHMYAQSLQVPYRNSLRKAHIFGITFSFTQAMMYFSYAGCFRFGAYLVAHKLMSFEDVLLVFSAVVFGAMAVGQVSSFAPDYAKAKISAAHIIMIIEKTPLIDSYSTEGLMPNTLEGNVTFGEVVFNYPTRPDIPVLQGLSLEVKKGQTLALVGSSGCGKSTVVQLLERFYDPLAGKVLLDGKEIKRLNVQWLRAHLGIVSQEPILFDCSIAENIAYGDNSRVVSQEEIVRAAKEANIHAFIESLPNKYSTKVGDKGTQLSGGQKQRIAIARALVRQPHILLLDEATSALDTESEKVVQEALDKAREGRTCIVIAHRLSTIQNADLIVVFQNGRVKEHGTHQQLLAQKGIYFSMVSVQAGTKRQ

- Pgp inhibition in the MDCKII bidirectional assays (Pgp; MDCKII bidirectional assays): not observed
- inhibition at 5 µM (Pgp; Pgp-expressed MDCKII cell monolayers, probe Digoxin (5 μM), Pgp, Monolayers, substrate Digoxin (5 μM), read-out: Maximal % Inhibition): < 20%
- IC50 (Pgp; Pgp, Monolayers, substrate Digoxin (5 μM)): > 5 µM
- CYP2B6 mRNA Fold induction (CYP2B6 mRNA; Donor 1): <2 Fold
- CYP2B6 mRNA Fold induction (CYP2B6 mRNA; Donor 2): <2 Fold
- CYP2B6 mRNA Fold induction (CYP2B6 mRNA; Donor 3): <2 Fold
- Induction of CYP2B6 mRNA (CYP2B6 mRNA; [1]): did not induce
- CYP2C19 mRNA Fold induction (CYP2C19 mRNA; Donor 1, 0.03-30 μM): <2 Fold
- CYP2C19 mRNA Fold induction (CYP2C19 mRNA; Donor 2, 0.03-30 μM): <2 Fold
- CYP2C19 mRNA Fold induction (CYP2C19 mRNA; Donor 3, 0.03-30 μM): <2 Fold
- IC50 (CYP3A; probe midazolam (2 μM), substrate Midazolam 2 μM): > 15 µM
- IC50 (CYP3A; probe testosterone (50 μM), substrate Testosterone 50 μM): > 15 µM
- IC50 (CYP2D6; [2]): > 15 µM
- IC50 (CYP2D6; [3]): > 15 µM
- Permeability in Caco-2 cell monolayers (Caco-2 cell monolayers): low permeability
- Fold accumulation, OATP1B3 (OATP1B3): < 2 fold
- Substrate for OATP1B3 (OATP1B3; 0.1, 0.5, 1 and 5 μM): not a substrate
- IC50 (CYP2C19; [2]): > 15 µM
- IC50 (CYP2C19; [3]): > 15 µM
- CYP2C9 mRNA Fold induction (CYP2C9 mRNA; Donor 1): <2 Fold
- CYP2C9 mRNA Fold induction (CYP2C9 mRNA; Donor 2): <2 Fold
- CYP2C9 mRNA Fold induction (CYP2C9 mRNA; Donor 3): <2 Fold
- Induction of CYP2C9 mRNA (CYP2C9 mRNA; [1]): did not induce
- CYP1A2 mRNA Fold induction (CYP1A2 mRNA; Donor 1): <2 Fold
- CYP1A2 mRNA Fold induction (CYP1A2 mRNA; Donor 2): <2 Fold
- CYP1A2 mRNA Fold induction (CYP1A2 mRNA; Donor 3): <2 Fold
- Induction of CYP1A2 mRNA (CYP1A2 mRNA; [1]): did not induce
- IC50 (OAT1): > 3.75 µM
SMILES: COc1cc(O[C@H]2C(C)(C)[C@H](NC(=O)c3ccc(N4CCC(CN5CCN(c6ccc(C(=O)N[C@H]7CCC(=O)NC7=O)c(F)c6)CC5)CC4)cc3)C2(C)C)ccc1C#N [Compound A, 4-(4-((1-(4-(((1R,3R)-3-(4-cyano-3-methoxyphenoxy)-2,2,4,4-tetramethylcyclobutyl)carbamoyl)phenyl)piperidin-4-yl)methyl)piperazin-1-yl)-N—((S)-2,6-dioxopiperidin-3-yl)-2-fluorobenzamide]
